From ChEMBL document CHEMBL1201862, “PubChem BioAssay data set” (2004)
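Following 48 hours of exposure in 96-well plates, responses at five concentrations were used to interpolate endpoints linearly. The concentration for 50% growth inhibition is given as GI50.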 The source made the active and inactive calls. Cut-off read from the data, not from the text of the source: active = GI50 up to about 1.1 µM and inactive = higher.

Legend:
Experiment in all cases: NCI-60 cell line screen, 48 h
A498 = system: A498
BT-549 = system: BT-549
KM12 = system: KM12
LOX IMVI = system: LOX IMVI
M14 = system: M14
MCF7 = system: MCF7
MDA-MB-231 = system: MDA-MB-231
MDA-MB-435 = system: MDA-MB-435
MOLT-4 = system: MOLT-4
Malme-3M = system: Malme-3M
NCI-H226 = system: NCI-H226
NCI/ADR-RES = system: NCI/ADR-RES
OVCAR-5 = system: OVCAR-5
RPMI-8226 = system: RPMI-8226
SK-MEL-2 = system: SK-MEL-2
SK-OV-3 = system: SK-OV-3
SNB-75 = system: SNB-75
U-251 = system: U-251
UACC-257 = system: UACC-257
UACC-62 = system: UACC-62

Question: Which GI50 (A498) does the source give for c1ccc(C2=NOC(c3ccccc3)N2C23CC4CC(CC(C4)C2)C3)cc1 (stereo not given) here?
Answer: > 10 µM (inactive)

Question: What about the GI50 (BT-549) of the same compound?
Answer: > 10 µM (inactive)

Question: And the GI50 (KM12)?
Answer: > 10 µM (inactive)

Question: And the GI50 (LOX IMVI)?
Answer: > 10 µM (inactive)

Question: And the GI50 (M14)?
Answer: > 10 µM (inactive)

Question: And the GI50 (MCF7)?
Answer: 5.82 µM (inactive)

Question: And the GI50 (MDA-MB-231)?
Answer: > 10 µM (inactive)

Question: What about the GI50 (MDA-MB-435) of the same compound?
Answer: > 10 µM (inactive)

Question: What about the GI50 (MOLT-4) of the same compound?
Answer: 9.53 µM (inactive)

Question: And the GI50 (Malme-3M)?
Answer: > 10 µM (inactive)

Question: And the GI50 (NCI-H226)?
Answer: > 10 µM (inactive)

Question: What about the GI50 (NCI/ADR-RES) of the same compound?
Answer: > 10 µM (inactive)

Question: What about the GI50 (OVCAR-5) of the same compound?
Answer: > 10 µM (inactive)

Question: What about the GI50 (RPMI-8226) of the same compound?
Answer: > 10 µM (inactive)

Question: What about the GI50 (SK-MEL-2) of the same compound?
Answer: > 10 µM (inactive)

Question: And the GI50 (SK-OV-3)?
Answer: > 10 µM (inactive)

Question: And the GI50 (SNB-75)?
Answer: 5.19 µM (inactive)

Question: And the GI50 (U-251)?
Answer: > 10 µM (inactive)

Question: What about the GI50 (UACC-257) of the same compound?
Answer: 9.73 µM (inactive)

Question: And the GI50 (UACC-62)?
Answer: > 10 µM (inactive)

Question: With C=C(CCC/C(C)=C/C=C/[C@H](C)CCCc1ccoc1)C[C@@H]1OC(=O)[C@H](C)[C@@H]1O as the compound, how does the GI50 (A498) read?
Answer: 8.53 µM (inactive)

Question: And the GI50 (BT-549)?
Answer: 8.69 µM (inactive)

Question: What about the GI50 (KM12) of the same compound?
Answer: 9.79 µM (inactive)

Question: What about the GI50 (LOX IMVI) of the same compound?
Answer: 13.6 µM (inactive)

Question: And the GI50 (M14)?
Answer: 8.81 µM (inactive)

Question: What about the GI50 (MCF7) of the same compound?
Answer: 10.8 µM (inactive)

Question: What about the GI50 (MDA-MB-231) of the same compound?
Answer: 9.89 µM (inactive)

Question: What about the GI50 (MDA-MB-435) of the same compound?
Answer: 9.06 µM (inactive)

Question: And the GI50 (MOLT-4)?
Answer: 15.3 µM (inactive)

Question: What about the GI50 (Malme-3M) of the same compound?
Answer: 9.4 µM (inactive)

Question: And the GI50 (NCI-H226)?
Answer: 8.18 µM (inactive)

Question: And the GI50 (NCI/ADR-RES)?
Answer: 9.71 µM (inactive)

Question: What about the GI50 (OVCAR-5) of the same compound?
Answer: 11 µM (inactive)

Question: What about the GI50 (RPMI-8226) of the same compound?
Answer: 10.8 µM (inactive)

Question: And the GI50 (SK-MEL-2)?
Answer: 9.14 µM (inactive)

Question: What about the GI50 (SK-OV-3) of the same compound?
Answer: 8.15 µM (inactive)

Question: What about the GI50 (SNB-75) of the same compound?
Answer: 8.75 µM (inactive)

Question: And the GI50 (U-251)?
Answer: 11.8 µM (inactive)

Question: And the GI50 (UACC-257)?
Answer: 7.18 µM (inactive)

Question: And the GI50 (UACC-62)?
Answer: 7.98 µM (inactive)

Question: How did the GI50 (A498) turn out when CNC(=O)CCCNC(=O)CCCC(=O)OC was run?
Answer: > 100 µM (inactive)

Question: And the GI50 (BT-549)?
Answer: > 100 µM (inactive)

Question: What about the GI50 (KM12) of the same compound?
Answer: > 100 µM (inactive)

Question: What about the GI50 (LOX IMVI) of the same compound?
Answer: > 100 µM (inactive)

Question: What about the GI50 (M14) of the same compound?
Answer: > 100 µM (inactive)

Question: What about the GI50 (MCF7) of the same compound?
Answer: > 100 µM (inactive)

Question: And the GI50 (MDA-MB-231)?
Answer: > 100 µM (inactive)

Question: And the GI50 (MDA-MB-435)?
Answer: > 100 µM (inactive)

Question: What about the GI50 (MOLT-4) of the same compound?
Answer: > 100 µM (inactive)

Question: And the GI50 (Malme-3M)?
Answer: > 100 µM (inactive)

Question: What about the GI50 (NCI-H226) of the same compound?
Answer: > 100 µM (inactive)

Question: What about the GI50 (NCI/ADR-RES) of the same compound?
Answer: > 100 µM (inactive)

Question: And the GI50 (OVCAR-5)?
Answer: > 100 µM (inactive)

Question: What about the GI50 (RPMI-8226) of the same compound?
Answer: > 100 µM (inactive)

Question: And the GI50 (SK-MEL-2)?
Answer: > 100 µM (inactive)

Question: What about the GI50 (SK-OV-3) of the same compound?
Answer: > 100 µM (inactive)

Question: What about the GI50 (SNB-75) of the same compound?
Answer: > 100 µM (inactive)

Question: And the GI50 (U-251)?
Answer: > 100 µM (inactive)

Question: What about the GI50 (UACC-257) of the same compound?
Answer: > 100 µM (inactive)

Question: And the GI50 (UACC-62)?
Answer: > 100 µM (inactive)

Question: With O=NN(Cc1ccc(Cl)cc1)C(C(=O)O)c1ccccc1 (stereo not given) as the compound, how does the GI50 (A498) read?
Answer: > 100 µM (inactive)

Question: And the GI50 (BT-549)?
Answer: > 100 µM (inactive)

Question: What about the GI50 (KM12) of the same compound?
Answer: > 100 µM (inactive)

Question: And the GI50 (LOX IMVI)?
Answer: > 100 µM (inactive)

Question: What about the GI50 (M14) of the same compound?
Answer: > 100 µM (inactive)

Question: What about the GI50 (MCF7) of the same compound?
Answer: > 100 µM (inactive)

Question: What about the GI50 (MDA-MB-231) of the same compound?
Answer: > 100 µM (inactive)

Question: And the GI50 (MDA-MB-435)?
Answer: > 100 µM (inactive)

Question: What about the GI50 (MOLT-4) of the same compound?
Answer: > 100 µM (inactive)

Question: And the GI50 (Malme-3M)?
Answer: > 100 µM (inactive)

Question: And the GI50 (NCI-H226)?
Answer: > 100 µM (inactive)

Question: What about the GI50 (NCI/ADR-RES) of the same compound?
Answer: > 100 µM (inactive)

Question: And the GI50 (OVCAR-5)?
Answer: > 100 µM (inactive)

Question: And the GI50 (RPMI-8226)?
Answer: > 100 µM (inactive)

Question: And the GI50 (SK-MEL-2)?
Answer: > 100 µM (inactive)

Question: And the GI50 (SK-OV-3)?
Answer: > 100 µM (inactive)

Question: And the GI50 (SNB-75)?
Answer: > 100 µM (inactive)

Question: What about the GI50 (U-251) of the same compound?
Answer: > 100 µM (inactive)

Question: What about the GI50 (UACC-257) of the same compound?
Answer: 47.2 µM (inactive)

Question: And the GI50 (UACC-62)?
Answer: > 100 µM (inactive)

Question: Which GI50 (A498) does the source give for CC(=O)[C@]1(O)Cc2c(O)c3c(c(O)c2C(OC2OC(C)C(O)C(O)C2F)C1)C(=O)c1ccccc1C3=O (stereo not given in full) here?
Answer: 0.0581 µM (active)

Question: And the GI50 (BT-549)?
Answer: 0.358 µM (active)

Question: What about the GI50 (KM12) of the same compound?
Answer: 0.158 µM (active)

Question: What about the GI50 (LOX IMVI) of the same compound?
Answer: 0.0713 µM (active)

Question: And the GI50 (M14)?
Answer: 0.0951 µM (active)

Question: What about the GI50 (MCF7) of the same compound?
Answer: < 0.01 µM (active)

Question: What about the GI50 (MDA-MB-231) of the same compound?
Answer: 0.115 µM (active)

Question: And the GI50 (MDA-MB-435)?
Answer: 0.371 µM (active)

Question: What about the GI50 (MOLT-4) of the same compound?
Answer: < 0.01 µM (active)

Question: And the GI50 (Malme-3M)?
Answer: 0.208 µM (active)

Question: And the GI50 (NCI-H226)?
Answer: 0.0265 µM (active)

Question: What about the GI50 (NCI/ADR-RES) of the same compound?
Answer: 0.318 µM (active)

Question: What about the GI50 (OVCAR-5) of the same compound?
Answer: 0.125 µM (active)

Question: And the GI50 (RPMI-8226)?
Answer: < 0.0299 µM (active)

Question: And the GI50 (SK-MEL-2)?
Answer: 0.828 µM (active)

Question: What about the GI50 (SK-OV-3) of the same compound?
Answer: 0.135 µM (active)

Question: And the GI50 (SNB-75)?
Answer: 0.0664 µM (active)

Question: And the GI50 (U-251)?
Answer: < 0.0159 µM (active)

Question: What about the GI50 (UACC-257) of the same compound?
Answer: 0.225 µM (active)

Question: What about the GI50 (UACC-62) of the same compound?
Answer: 0.0791 µM (active)
